Assay results reported in paper PMC4504433 (ACS Chemical Biology, 2014).

Tested on: H3K79me2 in A431 cells
Experiment: High content imaging assay of H3K79me2
Details: 4 days

Nc1ncnc2c1ncn2[C@@H]1O[C@H](CSCC[C@H](N)C(=O)O)[C@@H](O)[C@H]1O [SAH]
reduction of H3K79 methylation, result in words: ineffective
